Data as given in paper PMC6372683, “Mechanism of the natural product moracin-O derived MO-460 and its targeting protein hnRNPA2B1 on HIF-1α inhibition” (Experimental & Molecular Medicine, 2019).
Where “and” joins values, the source holds several entries; their conditions need not be identical. Equal values may be shown once. Entries after “also recorded” stand apart in the source; their conditions may differ.

Tests used:
[1] = biological target: T1, hnRNPA2B1 GRD (202–353 aa) (Homo sapiens, UniProt P22626); assay: BLItz association-dissociation binding assay, GRD of hnRNPA2B1; conditions: 6XHis tagged protein, Con. 5 uM, biotin-MO-460 on streptavidin tip
T1 construct: 202–353 aa; His; made in house; host or cells: bacteria (pET28A vector)
T1 sequence (P22626 202-353): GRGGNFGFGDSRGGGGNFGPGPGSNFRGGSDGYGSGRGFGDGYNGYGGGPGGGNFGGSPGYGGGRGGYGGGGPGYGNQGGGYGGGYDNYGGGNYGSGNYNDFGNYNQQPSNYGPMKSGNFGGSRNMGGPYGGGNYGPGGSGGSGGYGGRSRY
Experimental: The binding capacity of hnRNPA2B1 to Biotin-MO-460 was also analyzed using a BLItz™ (Fortebio, Inc., CA, US) instrument with a streptavidin-coated biosensor tip (Pall, USA). The streptavidin-coated tips were pre-wetted for 10 min in an incubation buffer (10 mM HEPES pH 7.4, 1% BSA and 0.05% Tween 20). The streptavidin-coated tips were immobilized with 1 μM Biotin-MO-460 in incubation buffer (10 mM HEPES pH 7.4, 1% BSA and 0.05% Tween 20) for 5 min. […] The concentrations were then incubated with HEPES for another 3 min to desorb the protein. Analysis of the accurate and precise kinetic constants was performed by the BLItz data analysis software (BLItz Pro 1.1).

HIF-1α in Hep3B cells = assay: HIF-1α protein accumulation under CoCl2 mimetic hypoxia (immunostaining and western blotting); assay type: cell-based, human
HIF-1α = HIF-1α accumulation under real hypoxia (1% oxygen), western blotting and immunostaining; assay type: cell-based, human; conditions: 24 h
Experimental: For immunofluorescence observation, Hep3B cells were seeded on microplates at 2 or 5 × 10^4 cells/mL and cultured for 18 h. […] The medium in the microplate wells was then removed and cells were fixed with 3.7% formaldehyde in PBS for 15 min then permeabilized for 5 min with 100% cold MeOH. Cells were washed with PBS containing 1% bovine serum albumin (PBS-1% BSA), and then treated with 5% bovine serum albumin for 20 min. The cells in each well were treated with HIF-1α antibody in PBS-0.1% BSA then placed in a humidified atmosphere of 5% CO2 at 37 °C and incubated for 60 min. After being washed with PBS-0.1% BSA, treated wells of HIF-1α were incubated with Alexa Fluor 488-conjugated mouse anti-IgG antibody in PBS-0.1% BSA then incubated at room temperature for 60 min. After being washed with PBS-0.1% BSA, the dish wells were overlaid with Hoechst 33342 for 5 min at room temperature and then washed with PBS-0.1% BSA. Fluorescence was photographed with an inverted ECLIPSE Ti-U microscope (Nikon Corporation, Japan).

[2] = tested on: HIF-1α mRNA in Hep3B cells; assay: HIF-1α mRNA level by qRT-PCR / RT-PCR; assay type: cell-based, human
Experimental: Cells were lysed with TRIzol (Invitrogen) and proteins were extracted with chloroform. RNAs were precipitated with isopropanol and washed with 75% ethanol diluted with DEPC-treated water. Purity and concentration of RNA was analyzed using nano drop. The cDNA was synthesized from total RNA in a reaction mixture containing 5 × reaction buffer (250 mM Tris-HCl pH 8.3, 375 mM KCl, 15 mM MgCl2, 50 mM DTT), 50 μg/mL Oligo-dT, 10 mM dNTP, and 50,000 U M-MLV reverse transcriptase (Promega, Madison, WI). Amplified PCR products obtained with β actin-specific primers served as internal controls. The sequences of the primers used for this study are listed in Supplementary Materials and Methods 5 and 6.

[3] = tested on: hnRNPA2B1 protein and HIF-1α mRNA complex; assay: RNA-immunoprecipitation of hnRNPA2B1 with HIF-1α mRNA; assay type: cell-based, human; conditions: Hep3B cells, mimetic hypoxia, 50 μM, 24 h
Experimental: Hep3B cells were cultured at 37 °C in a 5% atmospheric concentration of CO2 and 200 μM of CoCl2 in the presence or absence of MO-460 (50 μM) and the cells harvested after 24 h. Total lysates of Hep3B were prepared in nuclear isolation buffer [128 mM sucrose, 40 mM Tris-HCl pH 7.5, 20 mM MgCl2, 4% Triton-X100]. After clarifying by centrifugation at 2500× g for 15 min at 4 °C the nuclear pellet was resuspended in RIP buffer [150 mM KCl, 25 mM Tris-HCl pH 7.5, 5 mM EDTA, 0.5 mM DTT, 0.5% Triton-X100, and protease inhibitor cocktail], and then incubated with 4 μg of either control IgG or the anti-hnRNPA2B1 antibody. After 1.5 h of incubation, protein-G agarose beads (Santa Cruz Biotechnologies, Santa Cruz, CA) were added and then precipitated. RNAs were purified from 90% of the samples. Eluted RNAs were complemented by reverse transcriptase with random primers. cDNAs were used in the subsequent PCR reactions with the indicated primer sets. The resulting PCR products were separated on a 1.5% agarose gel. The other 10% of the samples from which RNA was not collected were separated by SDS-PAGE and then immunoblotted with anti-hnRNPA2B1 antibody.

hnRNPA2B1 = biological target: T2, hnRNPA2B1 (Homo sapiens, UniProt P22626); assay: In vitro pull-down assay of purified recombinant hnRNPA2B1; assay type: binding; conditions: excess amount of MO-460 added
T2 construct: made in house; host or cells: HEK293T
T2 sequence (P22626 whole entry): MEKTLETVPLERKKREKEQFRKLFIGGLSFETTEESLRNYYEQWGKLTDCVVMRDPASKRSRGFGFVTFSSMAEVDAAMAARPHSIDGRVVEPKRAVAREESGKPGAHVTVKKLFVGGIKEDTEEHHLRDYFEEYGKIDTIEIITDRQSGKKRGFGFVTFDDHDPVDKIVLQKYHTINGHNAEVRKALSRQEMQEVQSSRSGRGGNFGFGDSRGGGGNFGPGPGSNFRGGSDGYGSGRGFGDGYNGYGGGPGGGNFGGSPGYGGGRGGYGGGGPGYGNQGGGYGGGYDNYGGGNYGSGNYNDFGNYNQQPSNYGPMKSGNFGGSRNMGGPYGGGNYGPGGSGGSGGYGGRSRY
Experimental: HEK293T cells were cultured in DMEM medium supplemented with 10% fetal bovine serum in a humidified atmosphere containing 5% CO2. The cells were transfected with C-terminal Myc/DDK-tagged hnRNPA2B1 constructs. Recombinant protein was captured with an anti-DDK affinity column followed by conventional chromatography. A streptavidin-conjugated biotin linker was used as a control or streptavidin-conjugated biotinylated MO-460 were treated with 5% bovine serum albumin in PBS for 1 h at room temperature. Myc/DDK-tagged hnRNPA2B1 protein (1 ug) was incubated with streptavidin-conjugated biotin linker (1,200 μM) or streptavidin-conjugated biotinylated MO-460 (400 μM) in the presence or absence of MO-460 (400 μg) in binding buffer for 6 h at 4 °C. The reacted beads were washed with binding buffer [10 mM HEPES pH 7.9, 10 mM KCl, 0.1 mM EGTA, 0.1 mM EDTA, 0.5 mM PMSF, 0.025% 2-mercaptoethanol, and protease inhibitor cocktail] and the bound proteins eluted with SDS/PAGE sample buffer. Proteins were resolved by SDS/PAGE and detected by silver staining.

Hep3B cells = assay: Stress granule formation (immunostaining of hnRNPA2B1 and TIA-1); assay type: cell-based, human; conditions: mimetic hypoxia

Kd [1]: 6.6 µM | interaction between hnRNPA2B1 and biotin-MO-460 on competition (hnRNPA2B1): eliminated
SMILES: CC(C)(O)[C@H]1Cc2cc3cc(-c4ccc(O)cc4)oc3cc2O1 [MO-460, (R)-4-[6-(1-Hydroxy-1-methylethyl)-5,6-dihydro-benzo[1,2-b;5,4-b’]difuran-2-yl]-phenol]
accumulation of HIF-1α protein (HIF-1α in Hep3B cells; CoCl2 mimetic hypoxia, 24 h): inhibits the accumulation of HIF-1α protein; also recorded: reduced the level of HIF-1α protein in a concentration-dependent manner; also recorded: completely eliminated the accumulation of HIF-1α | amount of hnRNPA2B1 (HIF-1α in Hep3B cells; western blot): no effect | HIF-1α accumulation (HIF-1α): reduction in HIF-1α accumulation | reduction in HIF-1α mRNA level ([2]; 50 µM, mimetic hypoxia, qRT-PCR): ~ 10% and < 10% | effect on HIF-1α transcript level ([2]; normoxic condition): no observed effect; also recorded: did not affect HIF-1α transcript levels | interaction between hnRNPA2B1 and HIF-1α mRNA [3]: abolished | stress granule formation, co-localization with TIA-1 (Hep3B cells): causes formation of cytoplasmic dots in hnRNPA2B1
